Data reported in ChEMBL document CHEMBL4630909 (2021).
Active and inactive are the calls of the source.

Tests used:
[1] = target: Chromatin remodeling regulator CECR2 (Homo sapiens, UniProt Q9BXF3); assay: CECR2 DiscoverX BROMOscan
[2] = target: 5-hydroxytryptamine receptor 6 (Homo sapiens) (UniProt P50406); settings: Compound concentration 10.0 uM
[3] = target: D(1B) dopamine receptor (Homo sapiens) (UniProt P21918); settings: Compound concentration 10.0 uM
[4] = target: Bromodomain-containing protein 9 (Homo sapiens, UniProt Q9H8M2); assay: BRD9 DiscoverX BROMOscan
[5] = target: SWI/SNF-related matrix-associated actin-dependent regulator of chromatin subfamily A member 4 (Homo sapiens, UniProt P51532); assay: SMARCA4 DiscoverX BROMOscan
Sequence of SWI/SNF-related matrix-associated actin-dependent regulator of chromatin subfamily A member 4 (P51532 whole entry): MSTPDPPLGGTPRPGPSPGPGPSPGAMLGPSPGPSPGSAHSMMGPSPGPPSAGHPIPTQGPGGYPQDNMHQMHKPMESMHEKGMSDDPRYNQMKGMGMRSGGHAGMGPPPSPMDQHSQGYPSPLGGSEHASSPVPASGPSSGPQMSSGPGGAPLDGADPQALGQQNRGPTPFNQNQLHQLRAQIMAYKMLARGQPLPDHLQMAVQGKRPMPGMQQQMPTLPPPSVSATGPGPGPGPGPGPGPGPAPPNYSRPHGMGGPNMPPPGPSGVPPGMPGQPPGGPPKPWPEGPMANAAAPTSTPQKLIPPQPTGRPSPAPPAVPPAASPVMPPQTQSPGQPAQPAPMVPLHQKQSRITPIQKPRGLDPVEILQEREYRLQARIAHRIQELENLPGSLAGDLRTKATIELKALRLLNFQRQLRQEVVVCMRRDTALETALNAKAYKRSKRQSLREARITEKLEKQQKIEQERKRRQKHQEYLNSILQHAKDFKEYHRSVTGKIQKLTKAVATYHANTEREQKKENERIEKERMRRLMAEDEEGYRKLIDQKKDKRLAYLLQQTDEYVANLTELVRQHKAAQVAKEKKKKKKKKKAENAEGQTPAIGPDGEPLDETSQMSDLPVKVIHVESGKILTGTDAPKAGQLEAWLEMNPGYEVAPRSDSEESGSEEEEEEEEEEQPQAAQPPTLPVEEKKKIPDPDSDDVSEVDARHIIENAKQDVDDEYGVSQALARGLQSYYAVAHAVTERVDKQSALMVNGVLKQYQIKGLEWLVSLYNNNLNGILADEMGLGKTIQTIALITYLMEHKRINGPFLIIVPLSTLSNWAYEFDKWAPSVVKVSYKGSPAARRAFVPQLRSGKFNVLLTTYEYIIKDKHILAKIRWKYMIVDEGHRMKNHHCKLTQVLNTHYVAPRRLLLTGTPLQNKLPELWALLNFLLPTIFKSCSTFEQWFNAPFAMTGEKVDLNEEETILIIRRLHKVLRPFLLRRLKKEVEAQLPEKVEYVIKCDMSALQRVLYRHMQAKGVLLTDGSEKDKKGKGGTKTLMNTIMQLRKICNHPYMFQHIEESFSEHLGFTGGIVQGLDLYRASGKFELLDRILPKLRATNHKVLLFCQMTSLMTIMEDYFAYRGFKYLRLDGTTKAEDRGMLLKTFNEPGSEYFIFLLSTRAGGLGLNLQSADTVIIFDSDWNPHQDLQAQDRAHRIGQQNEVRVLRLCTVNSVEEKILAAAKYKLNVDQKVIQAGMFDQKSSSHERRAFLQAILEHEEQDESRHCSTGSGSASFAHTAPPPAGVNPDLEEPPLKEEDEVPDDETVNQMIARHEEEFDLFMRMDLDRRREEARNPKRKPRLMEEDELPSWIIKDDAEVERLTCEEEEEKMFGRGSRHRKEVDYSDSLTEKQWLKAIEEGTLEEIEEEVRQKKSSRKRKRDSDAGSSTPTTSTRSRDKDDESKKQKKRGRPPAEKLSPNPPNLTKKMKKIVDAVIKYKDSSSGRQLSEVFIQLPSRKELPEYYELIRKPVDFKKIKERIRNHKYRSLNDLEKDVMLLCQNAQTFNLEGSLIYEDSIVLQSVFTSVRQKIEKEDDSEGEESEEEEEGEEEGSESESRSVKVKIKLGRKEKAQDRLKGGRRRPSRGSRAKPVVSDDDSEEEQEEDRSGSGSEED

[6] = target: Beta-3 adrenergic receptor (Homo sapiens) (UniProt P13945); settings: Compound concentration 10.0 uM
[7] = target: C-C motif chemokine 2 (Homo sapiens, UniProt P13500); assay: In vitro inhibition of MCP-1 in Lipopolysaccharide-stimulated human whole blood; type: tissue-based
Sequence of C-C motif chemokine 2 (P13500 whole entry): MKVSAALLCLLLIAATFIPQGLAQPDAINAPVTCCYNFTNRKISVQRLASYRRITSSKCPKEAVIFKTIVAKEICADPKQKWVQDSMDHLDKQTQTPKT

[8] = target: 5-hydroxytryptamine receptor 5A (Homo sapiens) (UniProt P47898); settings: Compound concentration 10.0 uM
[9] = species: Rattus norvegicus; settings: Compound concentration 10.0 uM
[10] = target: SWI/SNF-related matrix-associated actin-dependent regulator of chromatin subfamily A member 2 (Homo sapiens, UniProt P51531); assay: SMARCA2 DiscoverX BROMOscan
[11] = target: Kappa-type opioid receptor (Homo sapiens, UniProt P41145); settings: Compound concentration 10.0 uM
[12] = target: 5-hydroxytryptamine receptor 3A (Homo sapiens) (UniProt P46098); settings: Compound concentration 10.0 uM
[13] = target: 5-hydroxytryptamine receptor 2A (Homo sapiens, UniProt P28223); settings: Compound concentration 10.0 uM
[14] = target: Histamine H2 receptor (Homo sapiens) (UniProt P25021); settings: Compound concentration 10.0 uM
[15] = target: GABA-A receptor; anion channel; assay: (§1) Cross screening panel; type: protein-complex assay
[16] = target: Voltage-gated potassium channel, IKs; KCNQ1(Kv7.1)/KCNE1(MinK) (Homo sapiens, UniProt P15382+P51787); assay: as §1; type: protein-complex assay
[17] = target: D(3) dopamine receptor (Homo sapiens) (UniProt P35462); settings: Compound concentration 10.0 uM
[18] = target: Muscarinic acetylcholine receptor M2 (Homo sapiens) (UniProt P08172); settings: Compound concentration 10.0 uM
[19] = target: GABA-A receptor; anion channel (Rattus norvegicus) (UniProt O09028+P15431+P18506+P18508+P19969+P20236+P23574+P23576+P28471+P28473+P30191+P62813+P63079+P63138+Q91ZM7+Q9ES14); settings: Compound concentration 10.0 uM
[20] = target: GABA-A receptor; anion channel; assay: as §1; type: protein-complex assay; remark: listed apart in the source
[21] = target: Peregrin (Homo sapiens, UniProt P55201); assay: BRPF1 DiscoverX BROMOscan
[22] = target: Transcription initiation factor TFIID subunit 1-like (Homo sapiens, UniProt Q8IZX4); assay: TAF1L(2) DiscoverX BROMOscan
[23] = target: Bromodomain-containing protein 7 (Homo sapiens, UniProt Q9NPI1); assay: BRD7 DiscoverX BROMOscan
Sequence of Bromodomain-containing protein 7 (Q9NPI1 whole entry): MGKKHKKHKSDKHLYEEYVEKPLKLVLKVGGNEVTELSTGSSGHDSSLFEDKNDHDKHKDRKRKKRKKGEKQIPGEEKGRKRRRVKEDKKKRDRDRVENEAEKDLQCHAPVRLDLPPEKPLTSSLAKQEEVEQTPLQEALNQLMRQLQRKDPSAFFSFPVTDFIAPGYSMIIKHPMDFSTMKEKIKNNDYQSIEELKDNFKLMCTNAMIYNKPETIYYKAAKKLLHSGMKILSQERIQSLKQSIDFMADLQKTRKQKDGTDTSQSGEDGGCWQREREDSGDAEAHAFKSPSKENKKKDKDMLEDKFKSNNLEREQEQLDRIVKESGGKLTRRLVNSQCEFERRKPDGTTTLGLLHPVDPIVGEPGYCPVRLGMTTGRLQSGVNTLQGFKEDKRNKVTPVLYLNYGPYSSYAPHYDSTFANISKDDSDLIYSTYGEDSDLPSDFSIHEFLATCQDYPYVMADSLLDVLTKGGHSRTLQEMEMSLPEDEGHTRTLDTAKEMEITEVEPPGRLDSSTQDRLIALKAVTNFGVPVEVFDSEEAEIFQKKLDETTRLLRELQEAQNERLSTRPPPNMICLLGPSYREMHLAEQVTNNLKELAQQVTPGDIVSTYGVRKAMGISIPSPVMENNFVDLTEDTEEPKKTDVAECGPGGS

[24] = target: Muscarinic acetylcholine receptor M4 (Homo sapiens) (UniProt P08173); settings: Compound concentration 10.0 uM
Sequence of Muscarinic acetylcholine receptor M4 (Homo sapiens) (P08173 whole entry, the tested form may be a part): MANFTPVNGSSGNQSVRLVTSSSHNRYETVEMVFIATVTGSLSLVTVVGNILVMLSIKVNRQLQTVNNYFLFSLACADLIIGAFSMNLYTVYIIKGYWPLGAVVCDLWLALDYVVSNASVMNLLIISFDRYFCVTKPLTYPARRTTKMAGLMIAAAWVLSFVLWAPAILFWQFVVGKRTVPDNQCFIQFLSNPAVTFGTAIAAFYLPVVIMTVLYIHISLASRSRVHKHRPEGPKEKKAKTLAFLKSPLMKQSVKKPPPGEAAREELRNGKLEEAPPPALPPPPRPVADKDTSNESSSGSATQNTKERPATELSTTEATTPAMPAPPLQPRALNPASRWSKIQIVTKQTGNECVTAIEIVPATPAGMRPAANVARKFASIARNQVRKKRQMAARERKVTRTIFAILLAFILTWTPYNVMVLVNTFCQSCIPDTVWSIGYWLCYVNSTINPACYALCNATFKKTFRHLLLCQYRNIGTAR

[25] = target: Bromodomain adjacent to zinc finger domain protein 2A (Homo sapiens, UniProt Q9UIF9); assay: BAZ2A DiscoverX BROMOscan
[26] = target: D(2) dopamine receptor (Homo sapiens, UniProt P14416); settings: Compound concentration 10.0 uM
Sequence of D(2) dopamine receptor (P14416 whole entry): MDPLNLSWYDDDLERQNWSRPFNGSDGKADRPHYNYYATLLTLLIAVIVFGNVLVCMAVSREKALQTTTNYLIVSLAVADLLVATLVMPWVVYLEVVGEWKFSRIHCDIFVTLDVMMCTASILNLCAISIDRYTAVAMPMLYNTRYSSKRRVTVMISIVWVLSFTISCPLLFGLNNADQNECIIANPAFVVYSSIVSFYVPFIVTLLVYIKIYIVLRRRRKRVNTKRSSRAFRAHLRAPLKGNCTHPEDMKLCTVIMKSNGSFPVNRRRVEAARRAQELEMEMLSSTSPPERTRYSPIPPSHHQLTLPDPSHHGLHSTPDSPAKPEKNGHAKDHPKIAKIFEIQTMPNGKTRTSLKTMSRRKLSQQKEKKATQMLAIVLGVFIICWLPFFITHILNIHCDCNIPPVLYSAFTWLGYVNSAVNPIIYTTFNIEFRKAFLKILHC

[27] = target: T1, Protein polybromo-1 (Homo sapiens, UniProt Q86U86); assay: PBRM1(2) DiscoverX BROMOscan
T1 sequence (Q86U86 whole entry): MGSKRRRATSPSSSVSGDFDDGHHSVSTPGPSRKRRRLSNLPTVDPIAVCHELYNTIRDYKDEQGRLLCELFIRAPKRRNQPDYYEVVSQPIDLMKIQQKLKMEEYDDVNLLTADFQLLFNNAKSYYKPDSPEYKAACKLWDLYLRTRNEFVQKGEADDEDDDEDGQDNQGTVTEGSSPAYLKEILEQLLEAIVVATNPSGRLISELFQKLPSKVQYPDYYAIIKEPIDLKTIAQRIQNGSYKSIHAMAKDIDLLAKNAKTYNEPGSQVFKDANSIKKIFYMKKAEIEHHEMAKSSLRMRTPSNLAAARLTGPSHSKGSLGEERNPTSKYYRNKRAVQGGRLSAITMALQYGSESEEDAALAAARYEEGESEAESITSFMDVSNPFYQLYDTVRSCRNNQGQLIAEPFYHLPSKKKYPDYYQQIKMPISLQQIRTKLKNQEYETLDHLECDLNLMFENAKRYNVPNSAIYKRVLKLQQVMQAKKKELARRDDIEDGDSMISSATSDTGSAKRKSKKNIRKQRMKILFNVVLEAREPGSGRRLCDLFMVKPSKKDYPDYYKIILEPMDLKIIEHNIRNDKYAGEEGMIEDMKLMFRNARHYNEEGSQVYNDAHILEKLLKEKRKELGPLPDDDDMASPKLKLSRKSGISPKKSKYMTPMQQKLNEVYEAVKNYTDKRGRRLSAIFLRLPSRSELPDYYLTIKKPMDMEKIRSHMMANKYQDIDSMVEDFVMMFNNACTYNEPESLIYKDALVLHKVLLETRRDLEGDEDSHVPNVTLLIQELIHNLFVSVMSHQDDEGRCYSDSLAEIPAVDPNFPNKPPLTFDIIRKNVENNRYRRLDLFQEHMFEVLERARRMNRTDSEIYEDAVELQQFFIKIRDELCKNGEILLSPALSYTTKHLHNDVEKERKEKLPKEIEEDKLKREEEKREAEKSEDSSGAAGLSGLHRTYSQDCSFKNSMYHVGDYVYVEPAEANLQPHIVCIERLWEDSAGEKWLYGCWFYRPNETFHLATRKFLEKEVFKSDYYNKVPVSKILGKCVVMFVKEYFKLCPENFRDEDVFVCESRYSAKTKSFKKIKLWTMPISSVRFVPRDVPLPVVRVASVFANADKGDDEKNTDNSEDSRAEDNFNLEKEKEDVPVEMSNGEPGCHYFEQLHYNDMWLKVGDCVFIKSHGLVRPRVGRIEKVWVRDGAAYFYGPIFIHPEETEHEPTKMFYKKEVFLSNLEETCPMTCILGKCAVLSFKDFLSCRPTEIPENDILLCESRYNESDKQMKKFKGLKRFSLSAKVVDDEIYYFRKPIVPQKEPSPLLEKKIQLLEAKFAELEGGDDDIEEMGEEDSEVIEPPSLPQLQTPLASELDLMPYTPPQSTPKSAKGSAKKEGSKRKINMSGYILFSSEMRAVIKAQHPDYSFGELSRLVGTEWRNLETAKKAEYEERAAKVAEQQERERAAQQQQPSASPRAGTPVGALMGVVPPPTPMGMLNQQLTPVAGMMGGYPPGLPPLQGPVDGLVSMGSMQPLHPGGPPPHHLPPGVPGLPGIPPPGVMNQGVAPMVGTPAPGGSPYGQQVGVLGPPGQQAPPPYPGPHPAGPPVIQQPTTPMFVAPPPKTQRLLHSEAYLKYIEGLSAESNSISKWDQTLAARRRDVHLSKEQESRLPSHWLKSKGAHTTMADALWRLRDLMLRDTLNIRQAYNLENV

[28] = target: T1, Protein polybromo-1; assay: PBRM1(5) DiscoverX BROMOscan
[29] = target: 5-hydroxytryptamine receptor 2C (Homo sapiens) (UniProt P28335); settings: Compound concentration 10.0 uM
[30] = target: Alpha-1D adrenergic receptor (Homo sapiens) (UniProt P25100); settings: Compound concentration 10.0 uM
[31] = target: Alpha-1B adrenergic receptor (Homo sapiens) (UniProt P35368); settings: Compound concentration 10.0 uM
[32] = target: Bromodomain-containing protein 8 (Homo sapiens, UniProt Q9H0E9); assay: BRD8(1) DiscoverX BROMOscan
[33] = target: Histone acetyltransferase KAT2A (Homo sapiens, UniProt Q92830); assay: GCN5L2 DiscoverX BROMOscan
[34] = target: CREB-binding protein (Homo sapiens, UniProt Q92793); assay: CREBBP DiscoverX BROMOscan
[35] = target: Beta-2 adrenergic receptor (Homo sapiens, UniProt P07550); settings: Compound concentration 10.0 uM
[36] = target: Histone acetyltransferase KAT2B (Homo sapiens, UniProt Q92831); assay: PCAF DiscoverX BROMOscan
[37] = target: 5-hydroxytryptamine receptor 2B (Homo sapiens) (UniProt P41595); settings: Compound concentration 10.0 uM
[38] = target: Alpha-2C adrenergic receptor (Homo sapiens) (UniProt P18825); settings: Compound concentration 10.0 uM
[39] = target: 5-hydroxytryptamine receptor 1A (Homo sapiens) (UniProt P08908); settings: Compound concentration 10.0 uM
[40] = target: 5-hydroxytryptamine receptor 1B (Homo sapiens, UniProt P28222); settings: Compound concentration 10.0 uM
[41] = target: Alpha-1A adrenergic receptor (Homo sapiens) (UniProt P35348); settings: Compound concentration 10.0 uM
[42] = target: Sigma intracellular receptor 2 (Homo sapiens) (UniProt Q5BJF2); settings: Compound concentration 10.0 uM
[43] = target: ATPase family AAA domain-containing protein 2B (Homo sapiens, UniProt Q9ULI0); assay: ATAD2B DiscoverX BROMOscan
[44] = target: Transcription intermediary factor 1-alpha (Homo sapiens, UniProt O15164); assay: TRIM24(PHD,Bromo.) DiscoverX BROMOscan
[45] = target: Histamine H3 receptor (Homo sapiens) (UniProt Q9Y5N1); settings: Compound concentration 10.0 uM
[46] = target: D(1A) dopamine receptor (Homo sapiens, UniProt P21728); settings: Compound concentration 10.0 uM
[47] = target: Bromodomain-containing protein 1 (Homo sapiens, UniProt O95696); assay: BRD1 DiscoverX BROMOscan
[48] = target: Transcription initiation factor TFIID subunit 1 (Homo sapiens, UniProt P21675); assay: TAF1(2) DiscoverX BROMOscan

CNC(=O)c1cc(C(=O)NC2CC2)cn(Cc2ccccc2)c1=O [GSK620]
> 25.1 µM: IC50 [16]
inactive: inhibition [2] 10.9% | inhibition [3] 18.6% | inhibition [6] 18.6% | inhibition [8] -4.41% | inhibition [9] 7.71% | inhibition [11] 39.9% | inhibition [12] 14.3% | inhibition [13] -8.9% | inhibition [14] -9.14% | inhibition [17] 1.54% | inhibition [18] 13.2% | inhibition [19] 28.2% | inhibition [24] 0.52% | inhibition [26] -2.98% | inhibition [29] 32.1% | inhibition [30] 2.36% | inhibition [31] 7.27% | inhibition [35] 16.5% | inhibition [37] 16.5% | inhibition [38] 0.69% | inhibition [39] 6.03% | inhibition [40] -3.67% | inhibition [41] -0.64% | inhibition [42] 7.83% | inhibition [45] -8.16% | inhibition [46] 6.94%
active: IC50 [7] 0.794 µM
31.6 µM: Kd [1] | Kd [4] | Kd [5] | Kd [10] | Kd [21] | Kd [23] | Kd [25] | Kd [27] | Kd [28] | Kd [32] | Kd [33] | Kd [36] | Kd [43] | Kd [44]
25.1 µM: Kd [22] | Kd [47]
3.98 µM: Kd [48]
< 4: pEC50 [15] | pIC50 [15] | pEC50 [20]
10 µM: Kd [34]
